Experimental data: ChEMBL document CHEMBL1909046, “DrugMatrix in vitro pharmacology data”

Legend:
[1] = target: T1, Muscarinic acetylcholine receptor M5 (Homo sapiens, UniProt P08912); format: cell membranes, CHO-K1, Membrane; conditions: cho-k1; further: in other assays of this panel Not Active means under 50% inhibition at 10 µM
T1 sequence (P08912 whole entry): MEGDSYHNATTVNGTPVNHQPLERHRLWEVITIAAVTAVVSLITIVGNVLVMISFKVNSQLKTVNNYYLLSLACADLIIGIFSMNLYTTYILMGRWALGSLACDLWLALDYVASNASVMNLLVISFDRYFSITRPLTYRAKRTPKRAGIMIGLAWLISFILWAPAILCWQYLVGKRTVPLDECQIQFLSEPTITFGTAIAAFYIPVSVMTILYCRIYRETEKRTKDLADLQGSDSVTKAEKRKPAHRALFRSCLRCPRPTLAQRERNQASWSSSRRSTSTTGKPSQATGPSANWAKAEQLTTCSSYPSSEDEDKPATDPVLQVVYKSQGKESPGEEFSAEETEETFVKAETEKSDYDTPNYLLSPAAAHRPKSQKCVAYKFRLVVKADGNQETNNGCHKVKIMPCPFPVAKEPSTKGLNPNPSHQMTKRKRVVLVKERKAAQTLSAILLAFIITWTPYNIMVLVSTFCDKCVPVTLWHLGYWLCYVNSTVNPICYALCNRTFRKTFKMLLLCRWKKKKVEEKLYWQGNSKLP

Insulin receptor = Insulin receptor (Rattus norvegicus, UniProt P15127); format: cell membranes, Wistar, Liver, Membrane; further: in other assays of this panel Not Active means under 50% inhibition at 10 µM
Sequence of Insulin receptor (P15127 27-759 limits assumed): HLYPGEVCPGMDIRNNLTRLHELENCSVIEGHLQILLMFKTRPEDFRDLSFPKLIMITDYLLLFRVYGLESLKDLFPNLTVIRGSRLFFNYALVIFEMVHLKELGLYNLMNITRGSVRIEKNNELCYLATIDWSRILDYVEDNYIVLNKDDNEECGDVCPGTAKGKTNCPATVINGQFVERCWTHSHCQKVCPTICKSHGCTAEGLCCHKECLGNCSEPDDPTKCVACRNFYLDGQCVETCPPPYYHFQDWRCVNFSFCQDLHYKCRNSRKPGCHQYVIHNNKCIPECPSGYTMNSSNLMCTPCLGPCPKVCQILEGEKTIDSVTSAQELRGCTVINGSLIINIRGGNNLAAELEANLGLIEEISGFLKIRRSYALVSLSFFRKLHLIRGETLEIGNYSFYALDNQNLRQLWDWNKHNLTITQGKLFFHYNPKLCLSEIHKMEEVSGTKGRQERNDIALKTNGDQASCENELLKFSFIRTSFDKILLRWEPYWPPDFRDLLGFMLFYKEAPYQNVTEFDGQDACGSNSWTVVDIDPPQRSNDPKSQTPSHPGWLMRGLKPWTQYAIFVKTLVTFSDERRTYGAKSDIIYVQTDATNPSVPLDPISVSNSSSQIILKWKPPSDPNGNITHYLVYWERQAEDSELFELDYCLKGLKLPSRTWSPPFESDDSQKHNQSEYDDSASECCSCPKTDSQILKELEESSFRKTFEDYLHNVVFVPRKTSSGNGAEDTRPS
Sequence of Insulin receptor (P15127 764-1383 limits assumed): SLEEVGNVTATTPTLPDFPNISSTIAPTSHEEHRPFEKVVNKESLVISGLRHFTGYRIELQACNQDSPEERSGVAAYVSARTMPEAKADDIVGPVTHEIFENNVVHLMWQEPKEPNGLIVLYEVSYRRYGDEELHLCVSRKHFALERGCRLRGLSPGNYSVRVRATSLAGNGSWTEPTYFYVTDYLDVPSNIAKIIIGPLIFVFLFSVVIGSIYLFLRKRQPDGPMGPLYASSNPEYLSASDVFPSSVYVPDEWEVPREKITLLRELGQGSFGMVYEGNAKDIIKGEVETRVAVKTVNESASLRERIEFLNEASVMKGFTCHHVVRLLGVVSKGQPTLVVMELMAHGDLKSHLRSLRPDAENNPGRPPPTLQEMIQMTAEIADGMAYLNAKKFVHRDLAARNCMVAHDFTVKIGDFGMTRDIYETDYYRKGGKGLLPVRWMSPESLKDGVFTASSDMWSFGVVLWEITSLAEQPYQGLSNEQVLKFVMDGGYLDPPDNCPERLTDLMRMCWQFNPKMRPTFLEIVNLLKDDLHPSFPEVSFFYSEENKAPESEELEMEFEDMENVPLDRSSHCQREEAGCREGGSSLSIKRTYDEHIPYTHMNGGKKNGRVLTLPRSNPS

[2] = target: T2, 5-hydroxytryptamine receptor 1A (Rattus norvegicus, UniProt P19327); format: cell membranes, CHO-K1, Membrane; conditions: cho-k1; further: in other assays of this panel Not Active means under 50% inhibition at 10 µM
T2 sequence (P19327 whole entry): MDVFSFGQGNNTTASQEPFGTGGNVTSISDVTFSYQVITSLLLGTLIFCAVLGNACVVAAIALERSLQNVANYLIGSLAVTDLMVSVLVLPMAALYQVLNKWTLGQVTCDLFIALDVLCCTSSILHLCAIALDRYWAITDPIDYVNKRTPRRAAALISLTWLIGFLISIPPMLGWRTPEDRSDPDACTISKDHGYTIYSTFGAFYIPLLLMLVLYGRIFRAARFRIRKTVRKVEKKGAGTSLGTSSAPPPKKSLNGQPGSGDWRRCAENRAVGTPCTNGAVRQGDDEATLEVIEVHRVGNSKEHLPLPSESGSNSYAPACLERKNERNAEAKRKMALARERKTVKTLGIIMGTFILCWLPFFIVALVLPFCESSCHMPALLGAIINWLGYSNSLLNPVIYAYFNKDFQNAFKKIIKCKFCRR

[3] = target: Aldo-keto reductase family 1 member B1 (Rattus norvegicus, UniProt P07943); format: tissue-based, Lens of camera-type eye;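 further: inhibition of aldose reductase enzyme activity, measured with DL-glyceraldehyde as the substrate; in other assays of this panel Not Active means under 50% inhibition at 10 µM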
[4] = DRUGMATRIX: Glutamate, NMDA, Agonism radioligand binding (ligand: [3H] CGP-39653); format: cell membranes, Rattus norvegicus, Wistar, Cerebral cortex, Membrane; conditions: Not Active = under 50% inhibition at 10 µM
Mu-type opioid receptor = Mu-type opioid receptor (Homo sapiens, UniProt P35372); assay: DRUGMATRIX: Opiate mu (OP3, MOP) radioligand binding (ligand: [3H] Diprenorphine); format: cell membranes, CHO-K1, Membrane; conditions: cho-k1; Not Active = under 50% inhibition at 10 µM
Sequence of Mu-type opioid receptor (P35372 whole entry): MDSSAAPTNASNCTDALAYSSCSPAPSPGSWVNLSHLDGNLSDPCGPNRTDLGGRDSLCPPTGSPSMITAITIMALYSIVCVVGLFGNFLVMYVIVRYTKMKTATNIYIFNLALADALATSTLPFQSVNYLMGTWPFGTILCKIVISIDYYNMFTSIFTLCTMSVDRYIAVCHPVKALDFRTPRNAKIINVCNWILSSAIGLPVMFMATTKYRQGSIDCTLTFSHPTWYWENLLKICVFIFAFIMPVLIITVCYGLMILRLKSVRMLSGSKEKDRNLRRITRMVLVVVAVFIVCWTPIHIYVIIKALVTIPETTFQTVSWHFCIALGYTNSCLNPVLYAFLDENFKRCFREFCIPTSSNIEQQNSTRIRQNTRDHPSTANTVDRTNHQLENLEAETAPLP

Cytochrome P450 2A6 = target: T3, Cytochrome P450 2A6 (Homo sapiens, UniProt P11509); conditions: bti-tn-5b1-4; further: in other assays of this panel Not Active means under 50% inhibition at 10 µM
T3 sequence (P11509 whole entry): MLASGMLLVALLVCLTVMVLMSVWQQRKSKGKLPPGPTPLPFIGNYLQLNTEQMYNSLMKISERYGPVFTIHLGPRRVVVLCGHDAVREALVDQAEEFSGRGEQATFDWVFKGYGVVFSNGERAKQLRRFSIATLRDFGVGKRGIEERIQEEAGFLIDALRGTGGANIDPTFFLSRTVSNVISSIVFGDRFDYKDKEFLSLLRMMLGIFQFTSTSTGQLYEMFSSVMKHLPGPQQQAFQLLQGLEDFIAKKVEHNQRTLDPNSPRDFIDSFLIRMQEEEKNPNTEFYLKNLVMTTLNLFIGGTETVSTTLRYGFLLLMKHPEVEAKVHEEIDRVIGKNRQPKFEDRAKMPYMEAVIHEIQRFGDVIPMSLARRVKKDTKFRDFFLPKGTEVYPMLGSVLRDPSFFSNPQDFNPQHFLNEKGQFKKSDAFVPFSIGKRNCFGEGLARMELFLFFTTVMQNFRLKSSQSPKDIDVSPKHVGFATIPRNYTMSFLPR

Leukotriene C4 synthase = target: T4, Leukotriene C4 synthase (Cavia porcellus, UniProt A6XA80); assay: biochemical; format: tissue-based, Lung
T4 sequence (A6XA80 whole entry): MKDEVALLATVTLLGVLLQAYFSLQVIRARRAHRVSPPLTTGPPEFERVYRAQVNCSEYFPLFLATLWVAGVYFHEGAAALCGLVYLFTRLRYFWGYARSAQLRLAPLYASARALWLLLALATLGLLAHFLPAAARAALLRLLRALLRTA

[5] = DRUGMATRIX: GABAA, Chloride Channel, TBOB radioligand binding (ligand: [3H] TBOB); format: cell membranes, Rattus norvegicus, Wistar, Cerebral cortex, Membrane; conditions: Not Active = under 50% inhibition at 10 µM
Melanocortin receptor 3 = Melanocortin receptor 3 (Homo sapiens, UniProt P41968); format: cell membranes, Membrane; conditions: hek293; further: in other assays of this panel Not Active means under 50% inhibition at 10 µM
Sequence of Melanocortin receptor 3 (P41968 whole entry): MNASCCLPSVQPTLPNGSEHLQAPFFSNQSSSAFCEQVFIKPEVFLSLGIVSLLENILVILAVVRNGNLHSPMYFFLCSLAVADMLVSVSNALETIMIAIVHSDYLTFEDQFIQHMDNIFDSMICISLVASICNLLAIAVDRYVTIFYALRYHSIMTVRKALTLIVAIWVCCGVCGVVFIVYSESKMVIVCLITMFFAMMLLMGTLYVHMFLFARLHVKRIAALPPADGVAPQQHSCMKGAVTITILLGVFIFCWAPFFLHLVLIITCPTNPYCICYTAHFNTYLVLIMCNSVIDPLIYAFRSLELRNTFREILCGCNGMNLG

[6] = target: T5, 5-hydroxytryptamine receptor 2C (Homo sapiens, UniProt P28335); assay: DRUGMATRIX: Serotonin (5-Hydroxytryptamine) 5-HT2C radioligand binding (ligand: [3H] Mesulergine); format: cell membranes, CHO-K1, Membrane; conditions: cho-k1; Not Active = under 50% inhibition at 10 µM
T5 sequence (P28335 whole entry): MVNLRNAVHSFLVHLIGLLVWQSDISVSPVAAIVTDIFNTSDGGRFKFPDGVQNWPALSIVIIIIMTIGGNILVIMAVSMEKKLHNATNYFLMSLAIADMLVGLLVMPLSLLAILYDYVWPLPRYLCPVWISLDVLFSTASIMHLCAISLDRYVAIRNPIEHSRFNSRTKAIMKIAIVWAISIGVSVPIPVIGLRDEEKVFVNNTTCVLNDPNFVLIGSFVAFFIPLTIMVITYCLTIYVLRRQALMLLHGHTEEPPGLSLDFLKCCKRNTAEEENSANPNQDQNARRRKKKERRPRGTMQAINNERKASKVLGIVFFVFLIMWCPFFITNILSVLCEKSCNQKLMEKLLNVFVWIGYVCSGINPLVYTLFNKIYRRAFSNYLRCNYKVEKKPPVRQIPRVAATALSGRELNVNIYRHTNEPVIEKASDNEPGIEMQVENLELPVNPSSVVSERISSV

[7] = target: Delta-type opioid receptor (Homo sapiens, UniProt P41143); format: cell membranes, HEK293, Membrane; conditions: hek293; further: in other assays of this panel Not Active means under 50% inhibition at 10 µM
Sequence of Delta-type opioid receptor (P41143 whole entry): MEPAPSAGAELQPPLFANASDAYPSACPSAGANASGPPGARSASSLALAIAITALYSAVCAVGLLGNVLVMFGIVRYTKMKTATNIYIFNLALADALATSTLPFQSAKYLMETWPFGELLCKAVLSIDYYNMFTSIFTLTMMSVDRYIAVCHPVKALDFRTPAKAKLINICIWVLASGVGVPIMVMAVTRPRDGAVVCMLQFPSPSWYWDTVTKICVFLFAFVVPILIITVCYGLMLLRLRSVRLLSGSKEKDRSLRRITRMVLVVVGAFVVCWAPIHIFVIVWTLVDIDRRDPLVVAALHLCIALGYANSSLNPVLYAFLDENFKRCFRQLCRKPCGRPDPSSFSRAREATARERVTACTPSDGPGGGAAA

[8] = DRUGMATRIX: Serotonin (5-Hydroxytryptamine) 5-HT3 radioligand binding (ligand: [3H] GR-65630); format: cell membranes, Membrane; conditions: hek293; Not Active = under 50% inhibition at 10 µM
[9] = DRUGMATRIX: Leukotriene, BLT (LTB4) radioligand binding (ligand: [3H]LTB4); format: cell membranes, Membrane; conditions: u-937; Not Active = under 50% inhibition at 10 µM

CN(N=O)C(=O)N[C@@H](C=O)[C@@H](O)[C@H](O)[C@H](O)CO [STREPTOZOCIN]
Not Active: IC50 [1] | IC50 (Insulin receptor) | IC50 [2] | IC50 [3] | IC50 [4] | Ki [4] | IC50 (Mu-type opioid receptor) | IC50 (Cytochrome P450 2A6) | Ki (Cytochrome P450 2A6) | IC50 (Leukotriene C4 synthase) | IC50 [5] | Ki [5] | IC50 (Melanocortin receptor 3) | IC50 [6] | IC50 [7] | IC50 [8] | Ki [8] | IC50 [9] | Ki [9]

Cc1cc(NS(=O)(=O)c2ccc(N)cc2)no1 [SULFAMETHOXAZOLE]
Not Active: IC50 [1] | IC50 (Insulin receptor) | IC50 [2] | IC50 [3] | IC50 [4] | Ki [4] | IC50 (Mu-type opioid receptor) | IC50 (Cytochrome P450 2A6) | Ki (Cytochrome P450 2A6) | IC50 (Leukotriene C4 synthase) | IC50 [5] | Ki [5] | IC50 (Melanocortin receptor 3) | IC50 [6] | IC50 [7] | IC50 [8] | Ki [8] | IC50 [9] | Ki [9]

Nc1ccc(S(N)(=O)=O)cc1 [SULFANILAMIDE]
Not Active: IC50 [1] | IC50 (Insulin receptor) | IC50 [2] | IC50 [3] | IC50 [4] | Ki [4] | IC50 (Mu-type opioid receptor) | IC50 (Cytochrome P450 2A6) | Ki (Cytochrome P450 2A6) | IC50 (Leukotriene C4 synthase) | IC50 [5] | Ki [5] | IC50 (Melanocortin receptor 3) | IC50 [6] | IC50 [7] | IC50 [8] | Ki [8] | IC50 [9] | Ki [9]

Nc1ccc(S(=O)(=O)Nc2ccnn2-c2ccccc2)cc1 [SULFAPHENAZOLE]
Not Active: IC50 [1] | IC50 (Insulin receptor) | IC50 [2] | IC50 [3] | IC50 [4] | Ki [4] | IC50 (Mu-type opioid receptor) | IC50 (Cytochrome P450 2A6) | Ki (Cytochrome P450 2A6) | IC50 (Leukotriene C4 synthase) | IC50 [5] | Ki [5] | IC50 (Melanocortin receptor 3) | IC50 [6] | IC50 [7] | IC50 [8] | Ki [8] | IC50 [9] | Ki [9]

C=CC[C@@H]1/C=C(\C)C[C@H](C)C[C@H](OC)[C@H]2O[C@@](O)(C(=O)C(=O)N3CCCC[C@H]3C(=O)O[C@H](/C(C)=C/[C@@H]3CC[C@@H](O)[C@H](OC)C3)[C@H](C)[C@@H](O)CC1=O)[C@H](C)C[C@@H]2OC [TACROLIMUS ANHYDROUS]
Not Active: IC50 [1] | IC50 (Insulin receptor) | IC50 [2] | IC50 [3] | IC50 [4] | Ki [4] | IC50 (Mu-type opioid receptor) | IC50 (Cytochrome P450 2A6) | Ki (Cytochrome P450 2A6) | IC50 (Leukotriene C4 synthase) | IC50 [5] | Ki [5] | IC50 (Melanocortin receptor 3) | IC50 [6] | IC50 [7] | IC50 [8] | Ki [8] | IC50 [9] | Ki [9]
